Experimental findings from paper PMC9046208, “Foldamers reveal and validate therapeutic targets associated with toxic α-synuclein self-assembly” (Nature Communications, 2022) are described below.

The target of one assay is Aβ42 aggregation (Homo sapiens, UniProt P05067). In words: ThT aggregation assay, Aβ42. It counts as biochemical. The following applies: equimolar ratio. As for the experimental part:
The aggregation kinetics of αS was monitored using ThT fluorescence assay (λex = 450 nm and λem = 485 nm). To study the aggregation kinetics of αS, the ThT dye at a final concentration of 50 μM was added to 100 μM αS solution in the aggregation buffer (1 x PBS buffer) with and without various concentrations of SK-129 in a Costar black 96–well plate (Corning Inc., Kennebunk, ME). The small molecules were dissolved in dimethyl sulfoxide (DMSO; final DMSO concentration = 0.5%, v/v). The final volume in each well was 140 μL. The plate was incubated at 37 °C with 16 min shaking (434 rpm) and 44 min without shaking in an Infinite M200PRO plate reader (Tecan, Männedorf, Switzerland) and fluorescence was recorded after every hour. We used two methods to quantify the effect of molecules on the aggregation of αS; either we have reported the t50 (time required to reach 50% fluorescence of ThT), which was extracted by fitting the ThT curve as a sigmoidal fit or the absolute ThT fluorescence intensity was reported. […] In the second method, we determined the final ThT fluorescence intensity for the aggregation of αS/Aβ42(with or without ligands) as an average of three separate experiments. […]
The data were expressed as mean and the error bars report the s.e.m. […]

In another assay the target is T1, αS oligomers (Homo sapiens, UniProt P37840).
T1 construct: made in house; host or cells: Escherichia coli BL21(DE3), periplasm
In words: Gel shift assay of αS supernatant (oligomers). It counts as biochemical. The following applies: 70 µM αS, 0.1, 0.2, 0.5 mol eq. ligand, 7 days. As for the experimental part:
Supplementary Fig. 8. Gel-shift images of αS (70 µM) incubated in the absence (lane 2) and presence of SK-129 (a) and EGCG (b) at sub-stoichiometric ratios (0.1, 0.2, 0.5 mol eq.) for 7 days at 370C with constant shaking. The solutions of αS in the absence and presence of ligands were centrifuged and the supernatant was used for the gel shift assay. The arrows indicate the formation of various αS structures. The gel shift assay of the supernatant of the αS aggregated […]
fibers. Most of the αS was found in the supernatant as a mo nomer and a dimer in the presence of […]
their formation. The gel experiments were conducted at least two times to confirm the reproducibility of the data.
(1 picture or pasted object on this page, not shown here)
(In EMSA bound probe runs differently from free probe, usually more slowly.)

In assay [1] the test system is primary rat hippocampal neurons. In words: LDH release assay, primary rat hippocampal neurons. It counts as cell-based. The note with it: PD + SK-129 PMCA sample, 21 days; PD sample ~8-fold higher than control. As for the experimental part: The rat embryos (both male and female) at embryonic day 18 were used to prepare the primary neurons according to previously published protocol. After removing all the meninges, the hippocampi were isolated from the fetal rat brain and kept in the dissection solution (1x HBSS, 10 mM HEPES buffer, 5 µg/mL Gentamicin, pH 7.3, Thermo Fisher Scientific, Waltham, MA). The hippocampi were minced and treated in the dissection solution containing 20 U/ml Papain (Worthington Biochemical Corp., Lakewood, NJ) and triturated in 50 µg/ml Dnase I (Sigma-Aldrich, St.Louis, MO). The isolated cells were plated on 1 mg/mL Poly-L-Lysine (Sigma-Aldrich, St.Louis, MO) coated μ-slide eight-well plate (Ibidi, Munich, Germany) at 200,000 cells/mL in neuron plating medium, which includes Minimum Essential Media (MEM)(Thermo Fisher Scientific, Waltham, MA) supplemented with 5% FBS (Thermo Fisher Scientific, Waltham, MA) and glucose (Sigma-Aldrich, St.Louis, MO). […]
The LDH assay was performed on the primary neurons treated with various conditions and incubated for 21 DIV. The release of LDH was measured using a Cytotox 96 Non-Radioactive Cytotoxicity Assay kit (Promega, Madison, WI) by following the instructions provided by the manufacturers. […] The absorbance of the media in the wells was measured at 490 nm using a 96-well plate reader.
In general terms: Release of lactate dehydrogenase indicates damage to the cell membrane.

Sequence of Aβ42 aggregation (P05067 672-713 limits assumed): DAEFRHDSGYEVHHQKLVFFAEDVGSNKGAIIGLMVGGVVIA

With `COC(=O)c1cc(OCC(=O)O)c2cccc(NC(=O)c3cc(OC(C)C)c4cccc(NC(=O)c5cc(OCC(=O)O)c6cccc(NC(=O)c7cc(OC(C)C)c8cccc([N+](=O)[O-])c8n7)c6n5)c4n3)c2n1` [SK-129], the “effect on Aβ aggregation” value on Aβ42 aggregation is “did not show any noticeable effect”. On αS oligomers, the “αS species in gel shift assay” value is “potently inhibits αS aggregation”. For the same compound, the “neurotoxicity (LDH release)” value in assay [1] is “did not observe any significant neurotoxicity”.
